Article PMC9530963, “A cathelicidin antimicrobial peptide from Hydrophis cyanocinctus inhibits Zika virus infection by downregulating expression of a viral entry factor” (The Journal of Biological Chemistry, 2022)

Key:
TYRO3 = TYRO3 level in Vero cells (Western blot); assay type: cell-based, Chlorocebus aethiops; details: 6, 12, and 24 h post Hc-CATH addition
Method: Figure 3 Hc-CATH downregulates AXL in Vero cell.A, schematic diagram of B and C. B, Vero cells were seeded in 24-well plates (5 × 10^4 cells/well) and cultured in DMEM containing 2% FBS. Hc-CATH (1.25, 2.5, and 5 μM), AC5 (2.5 μM), LL-37 (2.5 μM), or same volume of PBS (peptide solvent) was added to cells. After culture at 37 °C for 6, 12, and 24 h, the levels of ZIKV entry factors, including AXL, TYRO3, and TIM-1, were tested by Western blot, respectively. C, Vero cells were seeded in 8-well cover slip chambers (5 × 10^4 cells/well) and cultured in DMEM containing 2% FBS. Hc-CATH (1.25, 2.5, and 5 μM), AC5 (2.5 μM), LL-37 (2.5 μM), or same volume of PBS (peptide solvent) was added to cells. After culture at 37 °C for 24 h, the level of AXL was tested by immunofluorescence staining. The scale bar represents 50 μm. D, schematic diagram of E. E, Vero cells were seeded in 24-well plates (5 × 10^4 cells/well) and cultured in DMEM containing 2% FBS. Hc-CATH (1.25, 2.5, and 5 μM), AC5 (2.5 μM), LL-37 (2.5 μM), or same volume of PBS (peptide solvent) was added to cells and incubated at 37 °C for 2 h. […] Ratio of AXL to β-actin was analyzed by ImageJ.
Vero cells were incubated with Hc-CATH (1.25, 2.5, and 5 μM), AC5 (2.5 μM), LL-37 (2.5 μM), or PBS (solvent of peptide). […] The levels of ZIKV entry factors, including AXL, TYRO3, and TIM-1, were detected by WB analysis. […]

AXL [1] = test: AXL level in A549 cells (Western blot, immunofluorescence); assay type: cell-based, Homo sapiens; details: 1.25, 2.5, and 5 μM, 24 h, with and without ZIKV challenge
Method: (§1) Figure 4 Hc-CATH downregulates AXL in A549 cell.A, schematic diagram of B and C. B, A549 cells were seeded in 24-well plates (5 × 10^4 cells/well) and cultured in DMEM containing 2% FBS. Hc-CATH (1.25, 2.5, and 5 μM) or same volume of PBS (peptide solvent) was added to cells and incubated at 37 °C for 24 h. The level of AXL was tested by Western blot. C, A549 cells were seeded in 8-well cover slip chambers (5 × 10^4 cells/well) and cultured in DMEM containing 2% FBS. Hc-CATH (1.25, 2.5, and 5 μM) or PBS was added to cells and incubated at 37 °C for 24 h. The level of AXL was tested by immunofluorescence staining. The scale bar represents 50 μm. D, schematic diagram of E and G. E and G, A549 cells were seeded in 24-well plates (5 × 10^4 cells/well) and cultured in DMEM containing 2% FBS. Hc-CATH (1.25, 2.5, and 5 μM) or PBS was added to cells and incubated at 37 °C for 2 h. Cells were washed with PBS and incubated with ZIKV (MOI = 1). After incubation at 37 °C for 2 h, cells were washed with PBS and cultured in DMEM containing 2% FBS.
(§2) The effect of Hc-CATH on AXL was further confirmed in A549 and U251 cells. A549 or U251 cells were incubated with Hc-CATH (1.25, 2.5, and 5 μM) or PBS at 37 °C for 24 h, and the level of AXL was detected by WB and IF, respectively. Upon ZIKV challenge, A549 or U251 cells were incubated with Hc-CATH (1.25, 2.5, and 5 μM) or PBS at 37 °C for 2 h. […]

AXL [2] = test: AXL level in U251 cells (Western blot, immunofluorescence); assay type: cell-based, Homo sapiens; details: 1.25, 2.5, and 5 μM, 24 h, with and without ZIKV challenge
Method: as §1, with “Figure 5” for “Figure 4”, “in U251” for “in A549”, “B, U251” for “B, A549”, “C, U251” for “C, A549”, “of E–G. E–G, U251” for “of E and G. E and G, A549”
as §2

ZIKV = test: Susceptibility of A549 cells to ZIKV (peptide pretreatment); assay type: cell-based, ZIKV strain PRVABC59; details: 1.25, 2.5, and 5 μM, 2 h before ZIKV MOI = 1; 24 h; Western blot
Method: as §1
Vero, A549, or U251 cells were incubated with peptide or PBS at 37 °C for 2 h. […]
The effect of Hc-CATH on AXL was further confirmed in A549 and U251 cells. A549 or U251 cells were incubated with Hc-CATH (1.25, 2.5, and 5 μM) or PBS at 37 °C for 24 h, and the level of AXL was detected by WB and IF, respectively. […]

[3] = cited from earlier work
Description: Antimicrobial peptides (AMPs), also called host defense peptides, are a group of relatively small cationic peptides. They are an important part of the innate immune system and play an important role in fighting against bacterial infection ([26]). Recently, more and more studies have shown that AMPs can also exert antiviral effects by inhibiting virus adsorption, disrupting virus envelope, and regulating host antiviral immune response ([27], [28], [29]).

With “KFFKRLLKSVRRAVKKFRKKPRLIGLSTLL [Hc-CATH]” the “level of TYRO3 in Vero cells” value (TYRO3) was “did not obviously influence”, the “level of AXL in A549 cells” value (AXL [1]) was “effectively decreased the level of AXL” and the “level of AXL in U251 cells” value (AXL [2]) was “effectively decreased the level of AXL”. For the same sequence, the “susceptibility of A549 cells to ZIKV (NS3 protein)” value (ZIKV) was “decreased the susceptibility”, the cytotoxicity [3] was “low cytotoxicity” and the stability [3] was “high stability”.
